This test is described as follows: Glucose measurement (RTCM and glucose meter) in an awake diabetic rat after insulin injection. The settings on record: conscious diabetic rat, after 40 minutes, same amount of insulin as in anesthetized rats. Type of test: in vivo. As for the experimental part: FIGS. 6A-6B show glucose and insulin measurements in an awake diabetic rat. An awake diabetic rat was injected with human insulin, with blood samples collected at t=0, 5, 20, and 40 min after injection. Glucose levels were measured using RTCM and glucose meter (FIG. 6A), and insulin levels were measured using RTCM and ELISA (FIG. 6B).
Male Sprague Dawley rats (Charles River) were used for experiments. Animal studies were performed in accordance with the guidelines for the care and use of laboratory animals; all protocols were approved by the Stanford Institutional Animal Care and Use Committee. The protocol used for STZ induction adapted from the protocol by Kenneth K. Wu and Youming Huan (Wu, K. K., & Huan, Y. Streptozotocin-induced diabetic models in mice and rats. Curr. Protoc. Pharmacol. 5, 1-14 (2008)). Briefly, male Sprague Dawley rats 160-230 g (8-10 weeks) were weighed and fasted 6-8 hours prior to treatment with STZ. STZ was diluted to 10 mg/mL in the sodium citrate buffer immediately before injection. STZ solution was injected intraperitoneally at 65 mg/kg into each rat. Rats were provided with water containing 10% sucrose for 24 hours after injection with STZ. Rat blood glucose levels were tested for hyperglycemia daily after the STZ treatment via tail vein blood collection using a handheld Bayer Contour Next glucose monitor (Bayer). […]

The values that follow come from patent publication US12631626B2, “Continuous real-time monitoring of biomolecules in live subjects” (priority 2020, dated 2026).

On to “insulin: human insulin injected into an awake diabetic rat, same amount as in anesthetized rats; probably Humulin R”, for which the “Decrease in glucose level” value is 7 mM.
